Source: US20020110808A1, “Toxicant-induced differential gene expression” (priority 2000, published 2002)

Columns and labels:
HepG2 cells [1] = experiment: Differential display PCR (DD-PCR) of mRNA from treated cells; type: cell-based, human; conditions: visual inspection, not confirmed
Experimental: For each reverse transcription reaction, 50 ng of mRNA was incubated with a 3′ Anchored Primer (1 μM) at 65° C. for 5 minutes. The tubes were chilled and spun briefly. […] The final volume was 20 μl. Tubes were heated to 25° C. for 10 min, 42° C. for 60 min, and 70° C. for 15 min. The cDNA produced was either used immediately or stored at −20° C.
The DD-PCR was performed under the conditions recommended by Genomyx Corporation: 95° C. for 2 min; 4 cycles of 92° C. for 15 sec, 46° C. for 30 sec, 72° C. for 2 min; 25 cycles of 92° C. for 15 sec, 60° C. for 30 sec, 72° C. for 2 min; and one cycle of 72° C. for 7 min, followed by cooling at 4° C.
Stop solution (11 μl) was added to each reaction. The tubes were then heated for 2 min at 95° C. A 3-μl aliquot of each reaction was run on a 4.5% denaturing polyacrylamide gel for 16 hours at 800 V, 50° C. Under these conditions, bands ranging from 300 to 1200 base-pairs were well-resolved. Band excision and reamplification were performed according to the instructions given in the Genomyx Corporation protocol. The reamplification reaction mixture was added directly to the excised band and the PCRs were performed under the same conditions as the original DD-PCR, with the exceptions that the M13R(−48) and T7 primers (SEQ ID NO: 3 AND SEQ ID NO: 2, respectively) were used instead of the original anchored and arbitrary primers and [α-^33P]dATP was omitted. The PCR products were purified with S-400 HR microspin columns (Pharmacia).

HepG2 cells [2] = experiment: cDNA array (GF200) expression profiling; type: cell-based, human; conditions: for Number of genes with statistically significant (p<0.05) change in expression in three or more adjacent time points: 1 to 24 hr time course
Experimental: Cells were grown in DMEM/F12 medium with 10% fetal bovine serum in tissue culture flasks for 3 days following splitting, at which time they were at or near confluency. […] For each treated sample, an untreated control flask was set up with the same medium. Following the treatment period, mRNA was isolated by affinity purification on oligo(dT) cellulose resin using the Poly(A) Pure mRNA isolation kit from Ambion. RNA quality was assessed by agarose gel electrophoresis, and yields were determined by absorbance at 260 nm.
Radiolabeled cDNA for array hybridizations were prepared as follows. To a solution of 2 μg of RNA in 8 μl DEPC-treated water was added 2 μl of 1 μg/μl oligo(dT) (10-20 mer mixture, Research Genetics). After incubation for 10 min at 70° C., the solution was chilled on ice for 2 min, and then added to 6 μl of 5× first strand buffer (250 mM Tris-HCl (pH 8.3), 375 mM KCl, 15 mM MgCl2; Gibco-BRL), 1 μl of 0.1M DTT, 1.5 μl dNTP mix (20 mM each dATP, dGTP and dTTP), 10 μl of 10 mCi/ml [α-^33P]dCTP (1000 Ci/mmol, Amersham), and 1.5 μl of 200 U/μl reverse transcriptase (Superscript II, Gibco-BRL). Following a 90 min incubation at 37° C., cDNA targets were purified by passage through G-50 Sephadex spin columns (Pharmacia) or Bio-Spin 6 columns (BioRad).
GF200 cDNA arrays (Research Genetics) were washed in 0.5% boiling SDS for 5 min and prehybridized for 3 hrs at 42° C. in 5 ml MicroHyb solution (Research Genetics) containing 5 μl of 1 μg/ml poly(dA) (Research Genetics) and 5 μl of 1 μg/ml human Cot-I DNA (Gibco-BRL) that was denatured for 3 min at 100° C. prior to use. Labeled target nucleic acids, boiled for 3 min, were added directly, and hybridization was allowed to proceed for 16-18 hr at 42° C. in roller bottles in hybridization ovens. Arrays were washed twice in 2× SSC, 1% SDS at room temperature for 2 min, and then twice in 0.5× SSC, 1% SDS at 65° C. for 20 min. Arrays were exposed to storage phosphor screens for 3 days and scanned using a phosphorimager (Molecular Dynamics). Arrays were stripped for reuse by placing in boiling 0.5% SDS and then incubating for 1.5 hr with shaking at room temperature, allowing to solution to cool. After stripping, arrays were exposed to storage phosphor screens overnight to confirm loss of signal.
Spot intensities were determined using Pathways software (Research Genetics). Data from quadruplicate sets of hybridizations were normalized by local regression using NLR software (Tom Kepler, North Carolina State University). Cluster analysis was carried out using the Clustan Graphics software package from Clustan Limited (Edinburgh).

HepG2 cells [3] = experiment: Quantitative RT-PCR (TaqMan); type: cell-based, human
Experimental: Primers and probes were designed using Primer Express software (Perkin-Elmer). TaqMan probes (Perkin-Elmer) were synthesized with reporter dye 6FAM at the 5′ end and quencher TAMRA at the 3′ end. RNA template concentrations were determined by absorbance at 260 nm. Reactions were performed as described […], using 2.5 ng RNA, 300 nM each PCR primer, and 150 nM Taqman probes. Control reactions were set up with reverse transcriptase or template omitted. Reactions were run on an ABI 7700 instrument (Perkin-Elmer) using the following cycling conditions: reverse transcription at 48° C. for 30 min; inactivation of reverse transcriptase at 95° C. for 10 min; 40 cycles of denaturation at 94° C. for 15 sec and extension at 60° C. for 1 min. Changes in expression were calculated from the displacement of the amplification curve in the treated sample relative to the control.

HepG2 cells [4] = experiment: Caspase-3 assay for apoptosis; type: cell-based, human; conditions: 100 mM thioacetamide, 24 hr
Experimental: Caspase-3 assay for apoptosis. Activation of caspase-3, an intracellular cysteine protease, was measured by cleavage of a caspase-specific peptide using the Caspase-3 Colorimetric Assay kit from R&D Systems. HepG2 cells were cultured and treated as above in T-75 tissue culture flasks. Following treatment, cells were scraped off and spun down. The assay was performed according to the kit instructions using 350 μl/flask of lysis buffer.

HepG2 cells [5] = experiment: Cell morphology after toxicant treatment; conditions: 24 hr, 20 mM acetaminophen, 16 mM caffeine or 100 mM thioacetamide
Experimental: Depending on the desired exposure time, cell treatments began 3 or 4 days after splitting or plating. At this time, the cells were near or at confluency. […] Cell treatments were at 37° C.
The general strategy used for identifying toxicant-induced gene expression changes is outlined in Table 2.

[6] = 20 mM acetaminophen, 16 mM caffeine, 100 mM thioacetamide

In the case of `CC(=O)Nc1ccc(O)cc1` [acetaminophen], the “Number of difference bands on DD-PCR gel, Decreased” value (HepG2 cells [1]; acetaminophen 0.02 mM) is reported as 0, the “Number of difference bands on DD-PCR gel, Increased” value (HepG2 cells [1]; acetaminophen 0.02 mM) is reported as 0 and the “Number of difference bands on DD-PCR gel, Decreased” value (HepG2 cells [1]; acetaminophen 0.2 mM) is reported as 0. The “Number of difference bands on DD-PCR gel, Increased” value (HepG2 cells [1]; acetaminophen 0.2 mM) was 0, the “Number of difference bands on DD-PCR gel, Decreased” value (HepG2 cells [1]; acetaminophen 2 mM) was 1 and the “Number of difference bands on DD-PCR gel, Increased” value (HepG2 cells [1]; acetaminophen 2 mM) was 4. For the same compound, the “Number of difference bands on DD-PCR gel, Decreased” value (HepG2 cells [1]; acetaminophen 20 mM) was 16, the “Number of difference bands on DD-PCR gel, Increased” value (HepG2 cells [1]; acetaminophen 20 mM) was 18 and the “Number of genes with statistically significant (p<0.05) change in expression in three or more adjacent time points” value (HepG2 cells [2]; [6]) was 258. The “LDH-A down-regulation on arrays” value (HepG2 cells [2]; 24 hr, 20 mM acetaminophen, wash 0.5× SSC at 65° C.) was 11 fold, the “Metallothionein-1G induction on arrays” value (HepG2 cells [2]; acetaminophen, 24-hr time point) was 18 fold and the “TTF-1 interacting peptide 21 up-regulation on arrays” value (HepG2 cells [2]; acetaminophen, 12 hr) was 2.6 fold. The “TTF-1 interacting peptide 21 down-regulation by RT-PCR” value (HepG2 cells [3]; acetaminophen, 12 hr) was roughly 2 fold.

In the case of `CC(=N)S` [thioacetamide], the Metallothionein-1H induction (HepG2 cells [2]) is reported as “strongly induced”, the “Number of genes with statistically significant (p<0.05) change in expression in three or more adjacent time points” value (HepG2 cells [2]; [6]) is reported as 215 and the “Global differential gene expression (rms) over time” value (HepG2 cells [2]; 1 to 24 hr, 20 mM acetaminophen, 16 mM caffeine, 100 mM thioacetamide) is reported as “a high degree of differential expression is observed both at early and late time points”. The “Expression ratio (treated/control), Array: MT-1B (H72722)” value (HepG2 cells [2]; Thioacetamide (24 hr)) was 15, the “Expression ratio (treated/control), Array: MT-1G (H53340)” value (HepG2 cells [2]; Thioacetamide (24 hr)) was 15 and the “Expression ratio (treated/control), Array: MT-1H (H77766)” value (HepG2 cells [2]; Thioacetamide (24 hr)) was 16. For the same compound, the “Expression ratio (treated/control), Array: MT-1L (N80129)” value (HepG2 cells [2]; Thioacetamide (24 hr)) was 14, the “Expression ratio (treated/control), Array: MT-2 (R16596)” value (HepG2 cells [2]; Thioacetamide (24 hr)) was 15 and the Caspase-3 activation (HepG2 cells [4]) was “significant activation”. The “Expression ratio (treated/control), RT-PCR: MT-1G (H53340)” value (HepG2 cells [3]; Thioacetamide (24 hr)) was 3.1, the “Expression ratio (treated/control), RT-PCR: MT-2 (R16596)” value (HepG2 cells [3]; Thioacetamide (24 hr)) was 7.4 and the “Expression ratio (treated/control), RT-PCR: MT-1H (H77766)” value (HepG2 cells [3]; Thioacetamide (24 hr), not detectable in control samples) was greater than 1000. The “Cell morphology of treated cells” value (HepG2 cells [5]) was “somewhat dense and grainy”.
